According to PMC5218480 (PLoS ONE, 2017):

Tested on: MV-4-11 cells
Assay: Gene expression microarray analysis (Affymetrix PrimeView) and GSEA
Type: cell-based, human
Design: RFU PODN (11730768_x_at) / Fold change /veh PODN (11730768_x_at) / RFU LINC00158 (11744669_a_at) / Fold change /veh LINC00158 (11744669_a_at) / RFU DUSP10 (11751237_a_at) / Fold change /veh DUSP10 (11751237_a_at) / RFU ID3 (11757404_x_at) / Fold change /veh ID3 (11757404_x_at) / RFU PLEKHG5 (11737974_s_at) / Fold change /veh PLEKHG5 (11737974_s_at) / RFU LRRC4B (11730491_at) / Fold change /veh LRRC4B (11730491_at) / RFU GIMAP4 (11747438_a_at) / Fold change /veh GIMAP4 (11747438_a_at) / RFU KRT8 (11758183_x_at) / Fold change /veh KRT8 (11758183_x_at) / RFU CNN1 (11734310_a_at) / Fold change /veh CNN1 (11734310_a_at) / RFU VPS37D (11726825_at) / Fold change /veh VPS37D (11726825_at) / RFU C10orf10 (11716522_x_at) / Fold change /veh C10orf10 (11716522_x_at) / RFU KIR2DL2 /// KIR2DL4 /// KIR2DL5A /// KIR2DL5B /// KIR2DS1 /// KIR2DS2 /// KIR2DS3 /// KIR2DS4 /// KIR3DL3 /// KIR3DL3 /// KIR3DS1 (11738374_at) / Fold change /veh KIR2DL2 /// KIR2DL4 /// KIR2DL5A /// KIR2DL5B /// KIR2DS1 /// KIR2DS2 /// KIR2DS3 /// KIR2DS4 /// KIR3DL3 /// KIR3DL3 /// KIR3DS1 (11738374_at) / RFU C1QL1 (11718748_at) / Fold change /veh C1QL1 (11718748_at) / RFU TMPRSS4 (11747572_a_at) / Fold change /veh TMPRSS4 (11747572_a_at) / RFU HAMP (11756126_x_at) / Fold change /veh HAMP (11756126_x_at) / RFU RNFT2 (11725882_a_at) / Fold change /veh RNFT2 (11725882_a_at) / RFU NR4A2 (11747474_a_at) / Fold change /veh NR4A2 (11747474_a_at) / RFU ABCC12 (11746883_a_at) / Fold change /veh ABCC12 (11746883_a_at) / RFU TMEM136 (11760407_x_at) / Fold change /veh TMEM136 (11760407_x_at) / RFU CLDN22 /// WWC2 (11732394_at) / Fold change /veh CLDN22 /// WWC2 (11732394_at) / RFU HLA-DPB1 (11760878_x_at) / Fold change /veh HLA-DPB1 (11760878_x_at) / RFU SPINT1 (11716480_a_at) / Fold change /veh SPINT1 (11716480_a_at) / RFU GAP43 (11754022_s_at) / Fold change /veh GAP43 (11754022_s_at) / RFU A4GNT (11735810_at) / Fold change /veh A4GNT (11735810_at) / RFU PRB3 (11715151_x_at) / Fold change /veh PRB3 (11715151_x_at) / RFU TUBB4B (11761932_at) / Fold change /veh TUBB4B (11761932_at) / RFU CAPN14 (11732068_a_at) / Fold change /veh CAPN14 (11732068_a_at) / RFU TMCC2 (11721928_a_at) / Fold change /veh TMCC2 (11721928_a_at) / RFU IRGQ (11745062_a_at) / Fold change /veh IRGQ (11745062_a_at) / RFU FAM174B (11720279_a_at) / Fold change /veh FAM174B (11720279_a_at) / RFU TMPRSS4 (11748680_a_at) / Fold change /veh TMPRSS4 (11748680_a_at) / RFU FAM212B (11763350_a_at) / Fold change /veh FAM212B (11763350_a_at) / RFU PLEKHG5 (11743358_a_at) / Fold change /veh PLEKHG5 (11743358_a_at) / RFU ZSCAN30 (11745921_a_at) / Fold change /veh ZSCAN30 (11745921_a_at) / RFU CMKLR1 (11741424_a_at) / Fold change /veh CMKLR1 (11741424_a_at) / RFU LOC101060620 /// MAPK8IP1 (11723275_at) / Fold change /veh LOC101060620 /// MAPK8IP1 (11723275_at) / RFU SPTSSB (11747773_x_at) / Fold change /veh SPTSSB (11747773_x_at) / RFU PRSS12 (11739890_at) / Fold change /veh PRSS12 (11739890_at) / RFU BIN1 (11741810_x_at) / Fold change /veh BIN1 (11741810_x_at) / RFU WNT11 (11732464_a_at) / Fold change /veh WNT11 (11732464_a_at) / RFU C10orf10 (11716521_a_at) / Fold change /veh C10orf10 (11716521_a_at) / RFU C5orf56 (11738089_at) / Fold change /veh C5orf56 (11738089_at) / RFU CYB561 (11721691_x_at) / Fold change /veh CYB561 (11721691_x_at) / RFU ANKRD19P (11752326_a_at) / Fold change /veh ANKRD19P (11752326_a_at) / RFU OR2T12 /// OR2T33 /// OR2T8 (11738714_s_at) / Fold change /veh OR2T12 /// OR2T33 /// OR2T8 (11738714_s_at) / RFU VCAN (11748164_a_at) / Fold change /veh VCAN (11748164_a_at) / RFU JSRP1 (11732532_at) / Fold change /veh JSRP1 (11732532_at) / RFU KRTAP10-11 (11738290_x_at) / Fold change /veh KRTAP10-11 (11738290_x_at) / RFU MYO3A (11730013_a_at) / Fold change /veh MYO3A (11730013_a_at) / RFU EBF3 (11725865_a_at) / Fold change /veh EBF3 (11725865_a_at) / RFU CAMK2N1 (11719241_x_at) / Fold change /veh CAMK2N1 (11719241_x_at) / RFU C5orf56 (11738088_a_at) / Fold change /veh C5orf56 (11738088_a_at) / RFU OLFML3 (11715873_a_at) / Fold change /veh OLFML3 (11715873_a_at) / RFU LOC100653217 /// NTM (11731650_a_at) / Fold change /veh LOC100653217 /// NTM (11731650_a_at) / RFU MAPK11 (11762145_a_at) / Fold change /veh MAPK11 (11762145_a_at) / RFU FIZ1 (11724087_x_at) / Fold change /veh FIZ1 (11724087_x_at) / RFU OASL (11726364_x_at) / Fold change /veh OASL (11726364_x_at) / RFU SOX15 (11748057_x_at) / Fold change /veh SOX15 (11748057_x_at) / RFU CD79A (11719716_a_at) / Fold change /veh CD79A (11719716_a_at) / RFU HIST1H1D (11736915_at) / Fold change /veh HIST1H1D (11736915_at) / RFU CASKIN2 (11723855_a_at) / Fold change /veh CASKIN2 (11723855_a_at) / RFU LOC730098 (11760151_x_at) / Fold change /veh LOC730098 (11760151_x_at) / RFU OR4N2 (11742367_at) / Fold change /veh OR4N2 (11742367_at) / RFU PRRT2 (11749266_a_at) / Fold change /veh PRRT2 (11749266_a_at) / RFU SNX32 (11753110_a_at) / Fold change /veh SNX32 (11753110_a_at) / RFU CDHR5 (11726645_a_at) / Fold change /veh CDHR5 (11726645_a_at) / RFU RCAN1 (11760418_a_at) / Fold change /veh RCAN1 (11760418_a_at) / RFU FAM167A (11723789_a_at) / Fold change /veh FAM167A (11723789_a_at) / RFU FAM26E (11764081_at) / Fold change /veh FAM26E (11764081_at) / RFU ISYNA1 (11749810_s_at) / Fold change /veh ISYNA1 (11749810_s_at) / RFU ACY1 (11761880_at) / Fold change /veh ACY1 (11761880_at) / RFU 11764098_at / Fold change /veh 11764098_at / RFU SAMD14 (11745864_x_at) / Fold change /veh SAMD14 (11745864_x_at) / RFU NPB (11741838_a_at) / Fold change /veh NPB (11741838_a_at) / RFU TMPRSS6 (11731388_a_at) / Fold change /veh TMPRSS6 (11731388_a_at) / RFU KRTAP10-2 (11738614_at) / Fold change /veh KRTAP10-2 (11738614_at) / RFU ARHGAP8 /// PRR5-ARHGAP8 (11727945_x_at) / Fold change /veh ARHGAP8 /// PRR5-ARHGAP8 (11727945_x_at) / RFU KRTAP5-7 /// NADSYN1 (11734609_at) / Fold change /veh KRTAP5-7 /// NADSYN1 (11734609_at) / RFU RASL12 (11751679_a_at) / Fold change /veh RASL12 (11751679_a_at) / RFU CDKN2B (11736163_a_at) / Fold change /veh CDKN2B (11736163_a_at) / RFU PRF1 (11729649_at) / Fold change /veh PRF1 (11729649_at) / RFU, ZNF638 /// ZNF638-IT1 / Fold change vs veh, ZNF638 /// ZNF638-IT1 / RFU, PANK3 / Fold change vs veh, PANK3 / RFU, SH3YL1 / Fold change vs veh, SH3YL1 / RFU, ZEB2 / Fold change vs veh, ZEB2 / RFU, NRIP1 / Fold change vs veh, NRIP1 / RFU, PTTG1IP / Fold change vs veh, PTTG1IP / RFU, CAPN2 / Fold change vs veh, CAPN2 / RFU, MED14 / Fold change vs veh, MED14 / RFU, SNORA58 / Fold change vs veh, SNORA58 / RFU, C1orf63 / Fold change vs veh, C1orf63 / RFU, LRRFIP1 / Fold change vs veh, LRRFIP1 / RFU, NDUFAF7 / Fold change vs veh, NDUFAF7 / RFU, SLC12A2 / Fold change vs veh, SLC12A2 / RFU, IBTK / Fold change vs veh, IBTK / RFU, ESF1 / Fold change vs veh, ESF1 / Fold change vs veh, TMEM50B / RFU, TAOK1 / Fold change vs veh, TAOK1 / RFU, ACBD3 / Fold change vs veh, ACBD3 / RFU, TMA16 / Fold change vs veh, TMA16 / RFU, RWDD3 / Fold change vs veh, RWDD3 / RFU, BCAT1 / Fold change vs veh, BCAT1 / RFU, EDEM3 / Fold change vs veh, EDEM3 / RFU, TMEM33 / Fold change vs veh, TMEM33 / RFU, WDR75 / Fold change vs veh, WDR75 / RFU, AHCTF1 / Fold change vs veh, AHCTF1 / RFU, TFRC / Fold change vs veh, TFRC / RFU, ZDHHC17 / Fold change vs veh, ZDHHC17 / RFU, NOM1 / Fold change vs veh, NOM1 / RFU, ARL8B / Fold change vs veh, ARL8B / RFU, ZBTB11 / Fold change vs veh, ZBTB11 / RFU, TAMM41 / Fold change vs veh, TAMM41 / RFU, KIAA1704 /// LOC100996395 / Fold change vs veh, KIAA1704 /// LOC100996395 / RFU, ING1 / Fold change vs veh, ING1 / RFU, TRMT61B / Fold change vs veh, TRMT61B / RFU, FUBP3 / Fold change vs veh, FUBP3 / RFU, TP53 / Fold change vs veh, TP53 / RFU, TNKS2 / Fold change vs veh, TNKS2 / RFU, ZFP14 / Fold change vs veh, ZFP14 / RFU, ACTR2 / Fold change vs veh, ACTR2 / RFU, PPP3R1 / Fold change vs veh, PPP3R1 / RFU, PIK3R1 / Fold change vs veh, PIK3R1 / RFU, HNRNPA1 / Fold change vs veh, HNRNPA1 / RFU, RNF170 / Fold change vs veh, RNF170 / RFU, ZNF28 / Fold change vs veh, ZNF28 / RFU, RNGTT / Fold change vs veh, RNGTT / RFU, OGT / Fold change vs veh, OGT / RFU, BRD1 / Fold change vs veh, BRD1 / RFU, MARS / Fold change vs veh, MARS / RFU, ZNF655 / Fold change vs veh, ZNF655 / RFU, FAHD1 / Fold change vs veh, FAHD1 / RFU, BDP1 / Fold change vs veh, BDP1 / RFU, LRRCC1 / Fold change vs veh, LRRCC1 / RFU, ARID1A / Fold change vs veh, ARID1A / RFU, ZNF146 / Fold change vs veh, ZNF146 / RFU, ZNF330 / Fold change vs veh, ZNF330 / RFU, GPN3 / Fold change vs veh, GPN3 / RFU, C9orf123 / Fold change vs veh, C9orf123 / RFU, N4BP2L2 / Fold change vs veh, N4BP2L2 / RFU, ARFIP1 / Fold change vs veh, ARFIP1 / RFU, FAM179B / Fold change vs veh, FAM179B / RFU, BCL10 / Fold change vs veh, BCL10 / RFU, UHRF1BP1L / Fold change vs veh, UHRF1BP1L / RFU, BET1 / Fold change vs veh, BET1 / RFU, CNOT2 / Fold change vs veh, CNOT2 / RFU, ZNF268 / Fold change vs veh, ZNF268 / Fold change vs veh, ZNF507 / RFU, DGCR2 / Fold change vs veh, DGCR2 / RFU, WDSUB1 / Fold change vs veh, WDSUB1 / Fold change vs veh, HSP90B1 /// MIR3652 / RFU, ADSS / Fold change vs veh, ADSS / RFU, GK / Fold change vs veh, GK / RFU, ZNF148 / Fold change vs veh, ZNF148 / RFU, TAF9 / Fold change vs veh, TAF9 / RFU, SLC1A5 / Fold change vs veh, SLC1A5 / RFU, SLMO2 / Fold change vs veh, SLMO2 / RFU, ABCC4 / Fold change vs veh, ABCC4 / RFU, LOC101060439 /// RAP1B / Fold change vs veh, LOC101060439 /// RAP1B / RFU, RFX7 / Fold change vs veh, RFX7 / RFU, GTPBP10 / Fold change vs veh, GTPBP10 / RFU, CNEP1R1 / Fold change vs veh, CNEP1R1 / RFU, BIVM-ERCC5 /// ERCC5 / Fold change vs veh, BIVM-ERCC5 /// ERCC5 / RFU, ILF3 / Fold change vs veh, ILF3 / RFU 11762660_at / Fold change /veh 11762660_at / RFU VCAN (11757783_s_at) / Fold change /veh VCAN (11757783_s_at) / RFU DDX43 (11728927_at) / Fold change /veh DDX43 (11728927_at) / RFU KRT8 (11758188_x_at) / Fold change /veh KRT8 (11758188_x_at) / RFU NKD1 (11759106_at) / Fold change /veh NKD1 (11759106_at) / RFU SRD5A1 (11742802_a_at) / Fold change /veh SRD5A1 (11742802_a_at) / RFU TPSAB1 /// TPSB2 (11721975_s_at) / Fold change /veh TPSAB1 /// TPSB2 (11721975_s_at) / RFU GSTM3 (11746129_a_at) / Fold change /veh GSTM3 (11746129_a_at) / RFU IL23R (11737362_x_at) / Fold change /veh IL23R (11737362_x_at) / RFU TMEM51 (11727254_a_at) / Fold change /veh TMEM51 (11727254_a_at) / RFU PIWIL2 (11732686_x_at) / Fold change /veh PIWIL2 (11732686_x_at) / RFU ORM1 (11744905_x_at) / Fold change /veh ORM1 (11744905_x_at) / RFU CCDC152 (11743942_at) / Fold change /veh CCDC152 (11743942_at) / RFU ECM1 (11717891_a_at) / Fold change /veh ECM1 (11717891_a_at) / RFU IL23R (11748794_a_at) / Fold change /veh IL23R (11748794_a_at) / RFU TNFAIP8L3 (11732012_x_at) / Fold change /veh TNFAIP8L3 (11732012_x_at) / RFU MBOAT4 (11741988_at) / Fold change /veh MBOAT4 (11741988_at) / RFU 11764193_at / Fold change /veh 11764193_at / RFU TMEM53 (11763286_at) / Fold change /veh TMEM53 (11763286_at) / RFU MAGEB2 (11727129_at) / Fold change /veh MAGEB2 (11727129_at) / RFU TMEM200A (11744735_a_at) / Fold change /veh TMEM200A (11744735_a_at) / RFU CCDC152 (11751479_a_at) / Fold change /veh CCDC152 (11751479_a_at) / RFU FAM211A (11726209_a_at) / Fold change /veh FAM211A (11726209_a_at) / RFU RGS16 (11746705_a_at) / Fold change /veh RGS16 (11746705_a_at) / RFU VCAN (11755009_s_at) / Fold change /veh VCAN (11755009_s_at) / RFU RHOB (11743442_s_at) / Fold change /veh RHOB (11743442_s_at) / RFU RGS16 (11720943_a_at) / Fold change /veh RGS16 (11720943_a_at) / RFU RGS16 (11720944_at) / Fold change /veh RGS16 (11720944_at) / RFU, VPS4B / Fold change vs veh, VPS4B / RFU, CREB1 / Fold change vs veh, CREB1 / RFU, DNAJC13 / Fold change vs veh, DNAJC13 / RFU, GNAQ / Fold change vs veh, GNAQ / RFU, CDK5R1 / Fold change vs veh, CDK5R1 / RFU, ZRANB3 / Fold change vs veh, ZRANB3 / RFU, CUL4A / Fold change vs veh, CUL4A / RFU, CCNY / Fold change vs veh, CCNY / RFU, UFL1 / Fold change vs veh, UFL1 / RFU, COG3 / Fold change vs veh, COG3 / RFU, DIAPH2 / Fold change vs veh, DIAPH2 / RFU, SKA2 / Fold change vs veh, SKA2 / RFU, AFF3 / Fold change vs veh, AFF3 / RFU, LMF1 / Fold change vs veh, LMF1 / RFU, IPO11 / Fold change vs veh, IPO11 / RFU, DFFB / Fold change vs veh, DFFB / RFU, FOXP1 / Fold change vs veh, FOXP1 / RFU, CARD8 / Fold change vs veh, CARD8 / RFU, STRN3 / Fold change vs veh, STRN3 / RFU, ADK / Fold change vs veh, ADK / RFU, RASSF2 / Fold change vs veh, RASSF2 / RFU, WIPF1 / Fold change vs veh, WIPF1 / RFU, LARP1B / Fold change vs veh, LARP1B / RFU, RASA1 / Fold change vs veh, RASA1 / RFU, RB1 / Fold change vs veh, RB1 / RFU, PPFIA1 / Fold change vs veh, PPFIA1 / RFU, MAT2A / Fold change vs veh, MAT2A / RFU, CCT5 / Fold change vs veh, CCT5 / RFU, WDR92 / Fold change vs veh, WDR92 / RFU, CUX1 / Fold change vs veh, CUX1 / RFU, TTC7A / Fold change vs veh, TTC7A / RFU, TMEM135 / Fold change vs veh, TMEM135 / RFU, DEPTOR / Fold change vs veh, DEPTOR / RFU, CPM / Fold change vs veh, CPM / RFU, DNAJB6 / Fold change vs veh, DNAJB6 / RFU, CACNA2D3 / Fold change vs veh, CACNA2D3 / RFU, DTX4 / Fold change vs veh, DTX4 / RFU, TFCP2 / Fold change vs veh, TFCP2 / RFU, GMCL1 /// GMCL1P1 / Fold change vs veh, GMCL1 /// GMCL1P1 / RFU, AEBP2 / Fold change vs veh, AEBP2 / RFU, SNHG1 /// SNORD22 /// SNORD25 /// SNORD26 /// SNORD27 /// SNORD28 /// SNORD29 /// SNORD31 / Fold change vs veh, SNHG1 /// SNORD22 /// SNORD25 /// SNORD26 /// SNORD27 /// SNORD28 /// SNORD29 /// SNORD31 / Fold change (Aza/veh), C12orf56 (ProbeSet 11735607_a_at) / Fold change (ACY-1035/veh), C12orf56 (ProbeSet 11735607_a_at) / Fold change (Aza/veh), FGFR1OP (ProbeSet 11751329_s_at) / Fold change (ACY-1035/veh), FGFR1OP (ProbeSet 11751329_s_at) / Fold change (Aza/veh), VPS36 (ProbeSet 11739960_a_at) / Fold change (ACY-1035/veh), VPS36 (ProbeSet 11739960_a_at) / RFU SYPL1 (11715823_x_at) / Fold change /veh SYPL1 (11715823_x_at) / RFU IGFBP7 (11715501_s_at) / Fold change /veh IGFBP7 (11715501_s_at) / RFU REEP3 (11722064_at) / Fold change /veh REEP3 (11722064_at) / RFU IGLL1 (11728026_x_at) / Fold change /veh IGLL1 (11728026_x_at): dose or concentration left out as unconfirmed
Conditions: MV-4-11 cells, 48 hours

Nc1ncn([C@@H]2O[C@H](CO)[C@@H](O)[C@H]2O)c(=O)n1 [azacitidine]
Fold change /veh OR4N2 (11742367_at): 1.01
